Measurements published in US20190233836A1, “MEANS AND METHODS TO INCREASE COUMARIN PRODUCTION” (VIB VZW, priority 2016, published 2019).

Test system: COSY
Test: Enzymatic activity of COSY: in vitro assay combined with tobacco 4CL and CoA
Format: biochemical, Arabidopsis thaliana
Settings: 4CL and COSY added simultaneously, CoA present; purified COSY expressed in E. coli
From the text: FIG. 7: Enzymatic activity of COSY. COSY and 4CL were supplemented with either 2-hydroxy-p-coumaric acid (2OHpCA), 6-hydroxycaffeic acid (6OHCA) or 6-hydroxyferulic acid (6OHFA). Umbelliferone, esculetin and scopoletin were formed, respectively, only in the presence of CoA and the enzymes 4CL and COSY. The y-axis represents the normalized abundance, error bars show the standard deviation (n=4).
Although the idea of spontaneous isomerization and lactonisation in the biosynthesis of coumarins is now widely accepted in literature (Matsumoto S. et al., 2012; Yang et al., 2015) our cosy mutant data in Example 1 clearly contradict this. When we took a closer examination at the lactonisation reaction of the coumarin core structures we investigated the possible resemblance to an esterification-type reaction mediated by BAHD acyltransferases. BAHD family members utilize activated CoA-thioesters as acyl-donors and an alcohol or amine as the acyl acceptor to form an ester or amide, respectively. We therefore hypothesized that COUMARIN SYNTHASE (COSY) could be a BAHD acyltransferase responsible for the isomerization and lactonization of ortho-hydroxy-cinnamoyl CoA thioesters into coumarins. To verify the catalytic activity of COSY in vitro, COSY was expressed in Escherichia coli and the corresponding COSY protein purified. Potential substrates were chosen based on the phenolic profiling of the cosy mutants. […] Because neither 2′-hydroxy-p-coumaroyl-CoA, 6′-caffeoyl-CoA nor 6′-hydroxyferuloyl-CoA were commercially available, the corresponding acids were synthesized and the enzymatic assays were performed in combination with a tobacco 4-COUMARATE:CoA LIGASE (4CL) to catalyze the formation of the corresponding CoA thioesters in situ (Beuerle & Pichersky, 2002). In the samples where 4CL and COSY were added simultaneously, seemingly 100% 2-hydroxy-p-coumaric acid and 6-hydroxyferulic acid were converted into the corresponding coumarins, i.e., umbelliferone and scopoletin. […]

Compound | substrate converted into the corresponding coumarin (umbelliferone, scopoletin, esculetin)
O=C(O)/C=C/c1ccc(O)cc1O [2-hydroxy-p-coumaric acid] | ~100%
O=C(O)/C=C/c1cc(O)c(O)cc1O [6-hydroxycaffeic acid] | About 50%
COc1cc(/C=C/C(=O)O)c(O)cc1O [6-hydroxyferulic acid] | ~100%
